Measured values reported in patent US10786475B2, “Method for preventing, treating, or improving fatty liver by administering effective amounts of azelaic acid to a subject” (Korea University Research and Business Foundation, priority 2018, dated 2020).

How the values were obtained:
LPS mouse = assay: LPS-induced inflammation in C57BL/6J male mouse, liver gene expression; assay type: in vivo; conditions: AzA 100 mg/kg, LPS 10 mg/kg intraperitoneally, liver 16 hours after LPS
Protocol: Eight-week-old C57BL/6J male […] were purchased from Samtako (Gyeonggi-do, Korea). All experiments were carried out according to protocols approved by the Animal Experiment Committee of Korea University (Protocol No. KUIACUC-20090420-4). Mice were maintained under a 12-hour photoperiod at 21 to 25° C. and relative humidity of 50% to 60%. In normal groups and LPS-induced groups, 100 μL of deionized water was administered to each mouse using an oral sonde for 4 days, and 100 μL of LPS was intraperitoneally injected at a dose of 10 mg/kg one hour after the administration with deionized water on the last day, Day 4. In a group into which LPS was administered after the AzA administration, each mouse was orally administered 100 μL of AzA at a dose of 100 mg/kg for 4 days, and intraperitoneally injected with 100 μL of 10 mg/kg LPS one hour after the AzA administration on the last day, Day 4. Sixteen hours after the LPS intraperitoneal injection, the mice were anesthetized with avertin, and dissected to extract liver tissue. The liver tissue was obtained, immediately stored in liquid nitrogen, and then stored at −80° C.
1 μg of RNA extracted from the stored liver tissue was used to synthesize cDNA using a ReverTra Ace® qPCR RT kit (TOYOBO, Osaka, Japan). […]

ob/ob mouse = assay: Fatty liver inhibitory effect in ob/ob mouse; assay type: in vivo; conditions: 60% high-fat diet, AzA 50 mg/kg oral, 6 weeks
Protocol: A 7-week-old male fatty liver model ob/ob mouse was purchased from Central Laboratory Animal Inc. to be used in an experiment. An AzA was orally administered at 50 mg/kg of body weight along with a 60% high-fat diet (HFD) for 6 weeks. As the experiment progresses, body weight was measured once a week, and food intake was measured […] on the last week. The concentration of triglycerides in liver tissue was measured by homogenizing liver tissue of a mouse in 600 μL of acetone (Daejung, Korea), storing the homogenate at 4° C. for 24 hours, and obtaining a fat part by centrifugation at 12000 rpm for 10 minutes. The fat part was dried, dissolved in 95% ethanol, quantified using a Cobas C11 autoanalyzer (Roche, Basel, Switzerland) and normalized with a liver weight. A fatty acid oxidation rate was measured and analyzed by the method of Example 4-4 described above.

O=C(O)CCCCCCCC(=O)O [AzA, nonanedioic acid]
gene expression levels of inflammatory cytokines IL-6 and TNF-α in liver tissue (LPS mouse): tendency of reduction in inflammatory responses | expression of PPARα and a target gene thereof (Hmgcs2) in liver tissue (ob/ob mouse): significantly increased | triglyceride concentration in liver tissue (ob/ob mouse): reduced | body weight (ob/ob mouse; compared with control group): decreased
